Results reported in PubChem BioAssay AID192 (DTP/NCI, 2004).
Where “and” joins values, the source holds several entries; their conditions need not be identical. Identical values can stand only once. Toxic doses and inconclusive results are not listed.

Tested on: BDF1 mice, B16 melanoma ip, median survival T/C
Assay: NCI In Vivo Anticancer Drug Screen. Data for tumor model B16 Melanoma (intraperitoneal) in B6D2F1 (BDF1) mice
Conditions: endpoint: median survival time, higher = longer survival
Procedure, shortened: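 Values are ratios of treated (T) to vehicle-control (C) measurements of survival or tumor size in tumor-bearing mice.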

[1] = dose: 100.0 mg/kg/injection, schedule: Q01DX009 (ip), vehicle: Klucel (hydroxypropylcellulose) (HPC)
[2] = dose: 200.0 mg/kg/injection, schedule: Q01DX009 (ip), vehicle: Klucel (hydroxypropylcellulose) (HPC)
[3] = dose: 12.5 mg/kg/injection, schedule: Q01DX009 (ip), vehicle: saline with Tween-80
[4] = dose: 25.0 mg/kg/injection, schedule: Q01DX009 (ip), vehicle: saline with Tween-80
[5] = dose: 6.25 mg/kg/injection, schedule: Q01DX009 (ip), vehicle: Klucel (hydroxypropylcellulose) (HPC)
[6] = dose: 12.5 mg/kg/injection, schedule: Q01DX009 (ip), vehicle: Klucel (hydroxypropylcellulose) (HPC)
[7] = dose: 25.0 mg/kg/injection, schedule: Q01DX009 (ip), vehicle: Klucel (hydroxypropylcellulose) (HPC)
[8] = dose: 50.0 mg/kg/injection, schedule: Q01DX009 (ip), vehicle: Klucel (hydroxypropylcellulose) (HPC)
[9] = dose: 6.25 mg/kg/injection, schedule: Q01DX009 (ip), vehicle: saline with Tween-80
[10] = dose: 50.0 mg/kg/injection, schedule: Q01DX009 (ip), vehicle: saline with Tween-80
[11] = dose: 100.0 mg/kg/injection, schedule: Q01DX009 (ip), vehicle: saline with Tween-80

SMILES: COC1=C(C)C2CC(=O)OC3CC4C(C)CC(O)C(=O)C4(C)C(C1=O)C32C (stereo not given)
- T/C (dose: 0.5 mg/kg/injection, schedule: Q01DX009 (ip), vehicle: saline + alcohol): 110 % of control
- T/C (dose: 1.0 mg/kg/injection, schedule: Q01DX009 (ip), vehicle: saline + alcohol): 107 % of control
- T/C (dose: 2.0 mg/kg/injection, schedule: Q01DX009 (ip), vehicle: saline + alcohol): 99 % of control
- T/C (dose: 4.0 mg/kg/injection, schedule: Q01DX009 (ip), vehicle: saline + alcohol): 87 % of control
- T/C (dose: 8.0 mg/kg/injection, schedule: Q01DX009 (ip), vehicle: saline + alcohol): 99 % of control

SMILES: COc1ccc(-n2c(=S)[nH]c3ccccc3c2=O)cc1
- T/C [1]: 97 % of control
- T/C [2]: 88 % of control

SMILES: CCN(CCCCOC(=O)c1ccc(OC)c(OC)c1)C(C)Cc1ccc(OC)cc1 (stereo not given)
- T/C (dose: 1.32 mg/kg/injection, schedule: Q01DX009 (ip), vehicle: saline): 93 % of control
- T/C (dose: 2.65 mg/kg/injection, schedule: Q01DX009 (ip), vehicle: saline): 98 % of control
- T/C (dose: 4.68 mg/kg/injection, schedule: Q04DX003 (ip), vehicle: saline): 116 % of control
- T/C (dose: 5.31 mg/kg/injection, schedule: Q01DX009 (ip), vehicle: saline): 105 % of control and 107 % of control
- T/C (dose: 9.37 mg/kg/injection, schedule: Q04DX003 (ip), vehicle: saline): 111 % of control
- T/C (dose: 10.6 mg/kg/injection, schedule: Q01DX009 (ip), vehicle: saline): 88 % of control
- T/C (dose: 10.62 mg/kg/injection, schedule: Q01DX009 (ip), vehicle: saline): 88 % of control
- T/C (dose: 18.75 mg/kg/injection, schedule: Q04DX003 (ip), vehicle: saline): 119 % of control
- T/C (dose: 21.2 mg/kg/injection, schedule: Q01DX009 (ip), vehicle: saline): 90 % of control
- T/C (dose: 21.25 mg/kg/injection, schedule: Q01DX009 (ip), vehicle: saline): 91 % of control and 109 % of control
- T/C (dose: 37.5 mg/kg/injection, schedule: Q04DX003 (ip), vehicle: saline): 113 % of control
- T/C (dose: 42.5 mg/kg/injection, schedule: Q01DX009 (ip), vehicle: saline): 95 % of control and 101 % of control
- T/C (dose: 75.0 mg/kg/injection, schedule: Q04DX003 (ip), vehicle: saline): 119 % of control
- T/C (dose: 85.0 mg/kg/injection, schedule: Q01DX009 (ip), vehicle: saline): 87 % of control
- T/C (dose: 110.0 mg/kg/injection, schedule: Q04DX003 (ip), vehicle: saline): 112 % of control

SMILES: CC(=O)Nc1ccc2c(c1)C[N+](C)(C1CCCCC1)CO2 (stereo not given)
- T/C [3]: 106 % of control
- T/C [4]: 113 % of control

SMILES: Cc1ccc(C)c(NC(=O)Nc2cccc(Cl)c2)c1
- T/C [1]: 102 % of control
- T/C [2]: 100 % of control

SMILES: CC(=O)NC(Cc1cc(I)c(O)c(I)c1)C(=O)O (stereo not given)
- T/C [5]: 103 % of control
- T/C [6]: 108 % of control
- T/C [7]: 96 % of control and 101 % of control
- T/C [8]: 95 % of control
- T/C [1]: 98 % of control
- T/C [2]: 93 % of control

SMILES: Cc1ccc(C)c(NC(=O)Nc2ccccc2Cl)c1
- T/C (dose: 25.0 mg/kg/injection, schedule: Q01DX009 (ip), vehicle: gum acacia): 86 % of control
- T/C (dose: 50.0 mg/kg/injection, schedule: Q01DX009 (ip), vehicle: gum acacia): 90 % of control
- T/C (dose: 100.0 mg/kg/injection, schedule: Q01DX009 (ip), vehicle: gum acacia): 88 % of control
- T/C (dose: 100.0 mg/kg/injection, schedule: Q04DX003 (ip), vehicle: gum acacia): 90 % of control

SMILES: Cc1cc(=NO)cc(C)n1O
- T/C (dose: 25.0 mg/kg/injection, schedule: Q01DX009 (ip), vehicle: distilled water + alcohol): 100 % of control
- T/C (dose: 50.0 mg/kg/injection, schedule: Q01DX009 (ip), vehicle: distilled water + alcohol): 98 % of control
- T/C (dose: 200.0 mg/kg/injection, schedule: Q01DX009 (ip), vehicle: distilled water + alcohol): 86 % of control

SMILES: N#CC(C#N)=CN1CCCCCC1
- T/C (dose: 3.13 mg/kg/injection, schedule: Q01DX009 (ip), vehicle: saline with Tween-80): 107 % of control
- T/C (dose: 3.13 mg/kg/injection, schedule: Q04DX003 (ip), vehicle: saline with Tween-80): 93 % of control
- T/C [9]: 102 % of control
- T/C (dose: 6.25 mg/kg/injection, schedule: Q04DX003 (ip), vehicle: saline with Tween-80): 97 % of control
- T/C [3]: 102 % of control
- T/C (dose: 12.5 mg/kg/injection, schedule: Q04DX003 (ip), vehicle: saline with Tween-80): 100 % of control

SMILES: O=C(NC(C(=O)O)c1ccccc1)OCc1ccccc1 (stereo not given)
- T/C [10]: 97 % of control
- T/C [11]: 98 % of control
- T/C (dose: 200.0 mg/kg/injection, schedule: Q01DX009 (ip), vehicle: saline with Tween-80): 98 % of control

SMILES: O.O.[NH-]C1CCCCC1[NH-].[Pt+2] (stereo not given)
- T/C (dose: 0.62 mg/kg/injection, schedule: Q01DX009 (ip), vehicle: dextrose): 91 % of control and 111 % of control
- T/C (dose: 1.25 mg/kg/injection, schedule: Q01DX009 (ip), vehicle: dextrose): 118 % of control
- T/C (dose: 1.25 mg/kg/injection, schedule: Q01DX009 (ip), vehicle: other): 120 % of control
- T/C (dose: 2.5 mg/kg/injection, schedule: Q01DX009 (ip), vehicle: dextrose): 124 % of control
- T/C (dose: 2.5 mg/kg/injection, schedule: Q01DX009 (ip), vehicle: other): 120 % of control
- T/C (dose: 10.0 mg/kg/injection, schedule: Q01DX009 (ip), vehicle: other): 155 % of control

SMILES: CS(=O)(=O)OCCC(=O)N1CCN(C(=O)CCOS(C)(=O)=O)CC1
- T/C (dose: 1.56 mg/kg/injection, schedule: Q01DX009 (ip), vehicle: suspension in saline): 114 % of control
- T/C (dose: 3.12 mg/kg/injection, schedule: Q01DX009 (ip), vehicle: suspension in saline): 111 % of control
- T/C (dose: 6.25 mg/kg/injection, schedule: Q01DX009 (ip), vehicle: suspension in saline): 114 % of control
- T/C (dose: 12.5 mg/kg/injection, schedule: Q01DX009 (ip), vehicle: suspension in saline): 124 % of control
- T/C [4]: 150 % of control
- T/C [10]: 152 % of control and 170 % of control
- T/C (dose: 50.0 mg/kg/injection, schedule: Q01DX009 (ip), vehicle: suspension in saline): 171 % of control
- T/C [11]: 160 % of control

SMILES: O=C1C(Cl)=C(c2ccccc2)C(=O)C(Cl)=C1c1ccccc1
- T/C [5]: 114 % of control
- T/C [6]: 106 % of control
- T/C [7]: 87 % of control
- T/C [8]: 94 % of control

SMILES: CNC(=S)NCc1ccc(C(=O)NC(C)C)cc1
- T/C [7]: 101 % of control
- T/C [8]: 99 % of control
- T/C [1]: 118 % of control
- T/C [2]: 118 % of control

SMILES: C=C(Br)CNC(=O)CCC
- T/C (dose: 2.5 mg/kg/injection, schedule: Q01DX009 (ip), vehicle: saline): 103 % of control
- T/C (dose: 5.0 mg/kg/injection, schedule: Q01DX009 (ip), vehicle: saline): 112 % of control
- T/C (dose: 10.0 mg/kg/injection, schedule: Q01DX009 (ip), vehicle: saline): 104 % of control

SMILES: COc1ccc(S(=O)(=O)NC(=S)S)cc1
- T/C (dose: 12.5 mg/kg/injection, schedule: Q01DX009 (ip), vehicle: water): 103 % of control
- T/C (dose: 25.0 mg/kg/injection, schedule: Q01DX009 (ip), vehicle: water): 102 % of control
- T/C (dose: 50.0 mg/kg/injection, schedule: Q01DX009 (ip), vehicle: water): 100 % of control
- T/C (dose: 100.0 mg/kg/injection, schedule: Q01DX009 (ip), vehicle: water): 103 % of control

SMILES: CC(C)(C)CC(C)(C)c1ccc(O)c(O)c1
- T/C [9]: 98 % of control
- T/C [3]: 90 % of control
- T/C [4]: 88 % of control and 93 % of control

SMILES: CC1=CCC2(C)C(=O)CC3(C)C(CCC4C5(C)CCC(=O)C(C)(C)C5CCC43C)C2C1C (stereo not given)
- T/C (dose: 1.75 mg/kg/injection, schedule: Q01DX008 (ip), vehicle: saline): 100 % of control
- T/C (dose: 3.5 mg/kg/injection, schedule: Q01DX008 (ip), vehicle: saline): 100 % of control
- T/C (dose: 7.0 mg/kg/injection, schedule: Q01DX008 (ip), vehicle: saline): 94 % of control
- T/C (dose: 14.0 mg/kg/injection, schedule: Q01DX008 (ip), vehicle: saline): 99 % of control

SMILES: CC(=O)CC(C)=NCC(C)N=C(C)CC(C)=O.c1cc[c]([Sn][c]2ccccc2)cc1 (stereo not given)
- T/C (dose: 5.0 mg/kg/injection, schedule: Q04DX003 (ip), vehicle: saline with Tween-80): 119 % of control

SMILES: CCCC(C(CC)CN(C)C)N(C)C (stereo not given)
- T/C [3]: 90 % of control
- T/C [4]: 96 % of control
- T/C [10]: 94 % of control

SMILES: Cc1ccn2ncnc2c1
- T/C (dose: 50.0 mg/kg/injection, schedule: Q01DX009 (ip), vehicle: saline): 89 % of control
- T/C (dose: 100.0 mg/kg/injection, schedule: Q01DX009 (ip), vehicle: saline): 86 % of control
